Results: publication PMC12207590, “Substrate Specificity of the Organic Cation Transporters MATE1 and MATE2K and Functional Overlap with OCT1 and OCT2” (Journal of Medicinal Chemistry, 2025)
Read-outs that look alike come from different tables or passages of the source.

How the values were obtained:
MATE1 [1] = molecular target: T1, MATE1 (Homo sapiens, UniProt Q96FL8); experiment: Concentration-dependent uptake (Michaelis-Menten) via MATE1 in HEK293 cells; details: HEK293, 1 min, net uptake
T1 sequence (Q96FL8 1-570): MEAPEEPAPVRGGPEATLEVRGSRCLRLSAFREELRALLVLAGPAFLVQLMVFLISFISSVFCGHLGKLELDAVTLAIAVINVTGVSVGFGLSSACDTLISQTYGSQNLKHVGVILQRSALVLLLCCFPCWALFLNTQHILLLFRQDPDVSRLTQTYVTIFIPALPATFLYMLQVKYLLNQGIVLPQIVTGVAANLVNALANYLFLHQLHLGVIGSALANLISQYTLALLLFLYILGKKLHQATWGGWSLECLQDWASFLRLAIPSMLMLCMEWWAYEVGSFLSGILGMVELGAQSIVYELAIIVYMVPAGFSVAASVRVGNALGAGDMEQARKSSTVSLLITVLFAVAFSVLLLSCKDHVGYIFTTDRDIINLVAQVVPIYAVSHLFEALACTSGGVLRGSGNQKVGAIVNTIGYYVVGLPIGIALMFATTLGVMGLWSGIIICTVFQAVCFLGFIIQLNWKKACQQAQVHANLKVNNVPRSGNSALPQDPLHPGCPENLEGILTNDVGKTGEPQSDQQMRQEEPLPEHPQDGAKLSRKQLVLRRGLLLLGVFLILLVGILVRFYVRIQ

MATE2K [2] = molecular target: T2, MATE2K (Homo sapiens, UniProt Q86VL8); experiment: Concentration-dependent uptake (Michaelis-Menten) via MATE2K in HEK293 cells; details: HEK293, 1 min, net uptake
MATE1 [3] = molecular target: T1, MATE1; experiment: Uptake ratio in MATE1-overexpressing HEK293 cells vs empty vector (2.5 μM, 1 min, HPLC-MS/MS); assay type: cell-based; details: for MATE1: uptake ratio MATE1-overexpressing vs empty-vector HEK293 cells, mean; for MATE1 (uptake ratio): mean ratio of uptake in MATE1-overexpressing HEK293 cells vs empty vector
MATE2K [4] = molecular target: T2, MATE2K; experiment: Uptake ratio in MATE2K-overexpressing HEK293 cells vs empty vector (2.5 μM, 1 min, HPLC-MS/MS); assay type: cell-based; details: for MATE2: uptake ratio MATE2K-overexpressing vs empty-vector HEK293 cells, mean; for MATE2 (uptake ratio): mean ratio of uptake in MATE2K-overexpressing HEK293 cells vs empty vector
hCMEC [5] = experiment: TS DPH hCMEC (Table S2); assay type: cell-based, human; design: scale not given here
hCMEC [6] = experiment: TS MDAI hCMEC (Table S2); assay type: cell-based, human; design: scale not given here
[7] = fold uptake over empty vector, 2.5 μM, 1 min

T2 sequence (Q86VL8 1-566 isoform Q86VL8-3): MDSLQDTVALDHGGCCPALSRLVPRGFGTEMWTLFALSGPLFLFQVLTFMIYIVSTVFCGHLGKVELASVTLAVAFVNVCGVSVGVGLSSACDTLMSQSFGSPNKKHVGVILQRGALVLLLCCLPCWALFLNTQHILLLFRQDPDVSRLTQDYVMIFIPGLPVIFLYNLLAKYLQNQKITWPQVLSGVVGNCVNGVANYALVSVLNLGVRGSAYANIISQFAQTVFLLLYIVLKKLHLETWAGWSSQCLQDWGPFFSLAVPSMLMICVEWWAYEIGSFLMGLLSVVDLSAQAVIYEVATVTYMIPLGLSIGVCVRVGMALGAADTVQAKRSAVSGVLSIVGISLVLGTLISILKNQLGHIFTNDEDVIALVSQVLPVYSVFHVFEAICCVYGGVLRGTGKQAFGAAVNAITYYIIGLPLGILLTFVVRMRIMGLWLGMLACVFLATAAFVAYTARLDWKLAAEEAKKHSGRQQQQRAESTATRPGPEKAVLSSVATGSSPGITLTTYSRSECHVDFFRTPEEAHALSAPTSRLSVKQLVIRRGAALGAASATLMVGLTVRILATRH

Row | Structure (SMILES) | MATE1 ratio (MATE1 [3]; [7]) | MATE2K ratio (MATE2K [4]; [7]) | TS DPH hCMEC (hCMEC [5]; Table S2) | TS MDAI hCMEC (hCMEC [6]; Table S2) | further results
1 | NC[C@H](O)c1ccc(O)c(O)c1 [Norepinephrine] |  |  |  |  | MATE1 Vmax (MATE1 [1]): 18,720 pmol × mg protein^–1 × min^–1; Km (MATE1 [1]; read-out: MATE1 KM): 1870 µM; MATE2K Vmax (MATE2K [2]): 673 pmol × mg protein^–1 × min^–1; Km (MATE2K [2]; read-out: MATE2K KM): 1150 µM
2 | COc1cccc2c1C(=O)c1c(O)c3c(c(O)c1C2=O)C[C@@](O)(C(C)=O)C[C@@H]3O[C@H]1C[C@H](N)[C@H](O)[C@H](C)O1 [Daunorubicin] |  |  |  |  | MATE1 ratio (MATE1 [3]): 1.21; MATE2K ratio (MATE2K [4]): 1.01; TS DPH hCMEC (hCMEC [5]): 0.86; TS MDAI hCMEC (hCMEC [6]): 1.29
3 | CC[C@@H](CO)NCCN[C@@H](CC)CO [Ethambutol] | 14.14 | 2.78 | 0.98 | 0.95 | MATE1 ratio in this study (MATE1 [3]; Table S1, 2.5 μM, 1 min): 14.14; MATE1 ratio (MATE1 [3]; fold uptake over empty vector, 2.5 μM, 1 min, listed as ethambutol): 14; MATE2K ratio in this study (MATE2K [4]; Table S1, 2.5 μM, 1 min): 2.78
4 | NC(=O)c1cnccn1 [Pyrazinamide] | 0.97 | 1.05 | 0.95 | 1.08 | MATE1 (MATE1 [3]; 2.5 μM, 1 min): 0.97; MATE2 (MATE2K [4]; 2.5 μM, 1 min): 1.05
5 | CCC1(c2cccc(O)c2)CCCCN(C)C1 (stereo not shown) [Meptazinol] |  |  |  |  | MATE1 ratio (MATE1 [3]): 1.21; MATE2K ratio (MATE2K [4]): 1.57; TS DPH hCMEC (hCMEC [5]): 0.40; TS MDAI hCMEC (hCMEC [6]): 0.41
6 | N[C@@H]1CON=C1O [Cycloserine (L), Cycloserine] | 1.19 | 1.10 | 1.34 | 0.76 | 
7 | O=C1CCc2ccc(OCCCCN3CCN(c4cccc(Cl)c4Cl)CC3)cc2N1 [Aripiprazole] | 1.32 | 1.26 | 0.72 | 0.68 | MATE1 (uptake ratio) (MATE1 [3]; 2.5 μM, 1 min): 1.32; MATE2 (uptake ratio) (MATE2K [4]; 2.5 μM, 1 min): 1.26
8 | NC(=O)C1(N2CCCCC2)CCN(CCCC(=O)c2ccc(F)cc2)CC1 [Pipamperone] | 1.35 | 1.32 | 0.42 | 0.23 | 
9 | CC(Cc1ccc(O)cc1)NCC(O)c1cc(O)cc(O)c1 (stereo not shown) [Fenoterol] |  |  |  |  | MATE1 ratio (MATE1 [3]): 14.98; MATE1 ratio in this study (MATE1 [3]): 14.98; MATE2K ratio (MATE2K [4]): 5.46; MATE2K ratio in this study (MATE2K [4]): 5.46; TS DPH hCMEC (hCMEC [5]): 1.47; TS MDAI hCMEC (hCMEC [6]): 1.16
10 | C=CCN1C[C@H](C(=O)N(CCCN(C)C)C(=O)NCC)C[C@@H]2c3cccc4[nH]cc(c34)C[C@H]21 [Cabergoline] | 1.20 | 1.13 | 0.38 | 0.44 | MATE1 (uptake ratio) (MATE1 [3]; 2.5 μM, 1 min): 1.2; MATE2 (uptake ratio) (MATE2K [4]; 2.5 μM, 1 min): 1.13
11 | CCOC(=O)[C@]1(c2ccccc2)CCC=C[C@H]1NC [Nortilidine] |  |  |  |  | MATE1 ratio (MATE1 [3]): 1.19; MATE2K ratio (MATE2K [4]): 1.42; TS DPH hCMEC (hCMEC [5]): 0.53; TS MDAI hCMEC (hCMEC [6]): 0.52
12 | CN(C)CC(c1ccc(O)cc1)C1(O)CCCCC1 (stereo not shown) [Desvenlafaxine] | 1.12 | 1.09 | 0.49 | 0.61 | 
13 | CC(C)NCC(O)COc1cccc2[nH]ccc12 (stereo not shown) [Pindolol] | 1.84 | 1.18 | 0.59 | 0.83 | 
14 | OC(CCN1CCCCC1)(c1ccccc1)C1CC2C=CC1C2 (stereo not shown) [Biperiden] | 1.24 | 1.15 | 0.25 | 0.26 | MATE1 (uptake ratio) (MATE1 [3]; 2.5 μM, 1 min): 1.24; MATE2 (uptake ratio) (MATE2K [4]; 2.5 μM, 1 min): 1.15
15 | Cc1cccc(C(C)c2cnc[nH]2)c1C (stereo not shown) [Medetomidine] | 1.11 | 1.21 | 0.79 | 0.96 | 
16 | CN1CCC[C@@H]1Cc1c[nH]c2ccc(CCS(=O)(=O)c3ccccc3)cc12 [Eletriptan] | 1.41 | 1.22 | 0.21 | 0.46 | 
17 | COc1ccc2c(c1)N(C[C@H](C)CN(C)C)c1ccccc1S2 [Levomepromazine] | 1.21 | 1.19 | 0.31 | 0.33 | 
18 | CCCN1CCCC[C@H]1C(=O)Nc1c(C)cccc1C [Ropivacaine] | 1.22 | 1.49 | 0.15 | 0.37 | MATE1 (MATE1 [3]; 2.5 μM, 1 min): 1.22; MATE2 (MATE2K [4]; 2.5 μM, 1 min): 1.49
19 | CCCC(=O)Nc1ccc(OCC(O)CNC(C)C)c(C(C)=O)c1 (stereo not shown) [Acebutolol] | 12.97 | 9.08 | 0.84 | 0.88 | MATE1 (uptake ratio) (MATE1 [3]; 2.5 μM, 1 min): 12.97; MATE2 (uptake ratio) (MATE2K [4]; 2.5 μM, 1 min): 9.08
20 | CC12CC3CC(C)(C1)CC(N)(C3)C2 [Memantine] | 1.03 | 1.18 | 0.24 | 0.14 | MATE1 ratio in this study (MATE1 [3]; Table S1, 2.5 μM, 1 min): 1.03; MATE2K ratio in this study (MATE2K [4]; Table S1, 2.5 μM, 1 min): 1.18
21 | COCCOC(=O)C1=C(C)NC(C)=C(C(=O)OC(C)C)C1c1cccc([N+](=O)[O-])c1 (stereo not shown) [Nimodipine] | 1.33 | 1.20 | 1.28 | 1.25 | 
22 | CNCCc1ccccn1 [Betahistine] | 1.90 | 1.19 | 0.73 | 0.86 | MATE1 (uptake ratio) (MATE1 [3]; 2.5 μM, 1 min): 1.9; MATE2 (uptake ratio) (MATE2K [4]; 2.5 μM, 1 min): 1.19
23 | CCCNC(C)C(=O)Nc1c(C)csc1C(=O)OC (stereo not shown) [Articaine] | 1.26 | 1.59 | 0.53 | 0.47 | MATE1 (uptake ratio) (MATE1 [3]; 2.5 μM, 1 min): 1.26; MATE2 (uptake ratio) (MATE2K [4]; 2.5 μM, 1 min): 1.59
24 | O=C(O[C@H]1CN2CCC1CC2)N1CCc2ccccc2[C@@H]1c1ccccc1 [Solifenacin] | 1.28 | 1.22 | 0.27 | 0.44 | MATE1 (MATE1 [3]; 2.5 μM, 1 min): 1.28; MATE2 (MATE2K [4]; 2.5 μM, 1 min): 1.22
25 | CN(C)CCC=C1c2ccccc2COc2ccccc21 [Doxepin] | 1.34 | 1.32 | 0.13 | 0.10 | 
26 | Fc1ccc([C@@H]2CCNC[C@H]2COc2ccc3c(c2)OCO3)cc1 [Paroxetine] | 1.92 | 1.79 | 0.13 | 0.07 | 
27 | N[C@@H]1CON=C1O [Cycloserine (D), Cycloserine] | 1.19 | 1.14 | 1.25 | 0.79 | 
